From patent publication US8802597B2, “Herbicidal pyrimidines” (E I du Pont de Nemours and Company, priority 2003, dated 2014)

Tests used:
Experiment in all cases: Test C pre/postemergence
Assay type in all cases: in vivo
[1] = tested on: johnsongrass (Sorghum halepense); conditions: Sorghum halepense, pre-emergence, Preemergence, read-out: Plant response rating, Johnsongrass
Procedure, shortened: (§1)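 Injury scored visually 12–14 days after application on 0–100 scale (100 = complete control), relative to controls. Compounds, formulated with surfactant in non-phytotoxic solvent, applied to soil at planting (pre) or to 1- to 4-leaf plants 2–18 cm tall (post) in greenhouse.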

[2] = tested on: corn (Zea mays); conditions: Zea mays, pre-emergence, Preemergence
Procedure, shortened: as §1

[3] = tested on: morningglory (Ipomoea coccinea); conditions: Ipomoea, pre-emergence, Preemergence, read-out: Plant response rating, Morningglory
Procedure, shortened: as §1

[4] = tested on: Surinam grass (Brachiaria decumbens); conditions: Urochloa decumbens, pre-emergence, Preemergence, read-out: Plant response rating, Surinam Grass
Procedure, shortened: as §1

[5] = tested on: kochia (Kochia scoparia); conditions: Bassia scoparia, pre-emergence, Preemergence, read-out: Plant response rating, Kochia
Procedure, shortened: as §1

[6] = tested on: woolly cupgrass (Eriochloa villosa); conditions: Eriochloa villosa, pre-emergence, Preemergence, read-out: Plant response rating, Cupgrass, Woolly
Procedure, shortened: as §1

[7] = tested on: common (oilseed) sunflower (Helianthus annuus); conditions: Helianthus annuus, pre-emergence, Preemergence, read-out: Plant response rating, Sunflower
Procedure, shortened: as §1

[8] = tested on: pigweed (Amaranthus retroflexus); conditions: Amaranthus retroflexus, pre-emergence, Preemergence, read-out: Plant response rating, Pigweed
Procedure, shortened: as §1

[9] = tested on: common ragweed (Ambrosia elatior); conditions: Ambrosia artemisiifolia, pre-emergence, Preemergence, read-out: Plant response rating, Ragweed
Procedure, shortened: as §1

[10] = tested on: cocklebur (Xanthium strumarium); conditions: Xanthium strumarium, pre-emergence, Preemergence, read-out: Plant response rating, Cocklebur
Procedure, shortened: as §1

[11] = tested on: eastern black nightshade (Solanum ptycanthum); conditions: Solanum, pre-emergence, Preemergence, read-out: Plant response rating, Nightshade
Procedure, shortened: as §1

[12] = tested on: bermudagrass (Cynodon dactylon); conditions: Cynodon dactylon, pre-emergence, Preemergence, read-out: Plant response rating, Bermudagrass
Procedure, shortened: as §1

[13] = 62 g ai/ha, scale 0 to 100, 0 no effect, 100 complete control

Nc1nc(C2CC2)nc(C=O)c1Br [Compound 26]
70%: pest or weed control at 250 g/ha ([7]; 250 g ai/ha, scale 0 to 100) | pest or weed control at 62 g/ha [10, 13] | pest or weed control at 125 g/ha ([10]; 125 g ai/ha, scale 0 to 100)
50%: pest or weed control at 500 g/ha ([5]; 500 g ai/ha, scale 0 to 100)
10%: pest or weed control at 250 g/ha ([4]; 250 g ai/ha, scale 0 to 100) | pest or weed control at 500 g/ha ([4]; 500 g ai/ha, scale 0 to 100) | pest or weed control at 125 g/ha ([9]; 125 g ai/ha, scale 0 to 100) | pest or weed control at 62 g/ha [11, 13]
90%: pest or weed control at 500 g/ha ([3]; 500 g ai/ha, scale 0 to 100) | pest or weed control at 500 g/ha ([7]; 500 g ai/ha, scale 0 to 100) | pest or weed control at 500 g/ha ([9]; 500 g ai/ha, scale 0 to 100) | pest or weed control at 250 g/ha ([10]; 250 g ai/ha, scale 0 to 100)
30%: pest or weed control at 62 g/ha [8, 13]
95%: pest or weed control at 500 g/ha ([10]; 500 g ai/ha, scale 0 to 100)
20%: Corn plant response rating (crop injury, 0 = no effect, 100 = complete kill) at 500 g/ha ([2]; 500 g ai/ha, scale 0 to 100) | pest or weed control at 125 g/ha ([7]; 125 g ai/ha, scale 0 to 100)
100%: pest or weed control at 500 g/ha ([1]; 500 g ai/ha, scale 0 to 100) | pest or weed control at 125 g/ha ([8]; 125 g ai/ha, scale 0 to 100) | pest or weed control at 250 g/ha ([8]; 250 g ai/ha, scale 0 to 100) | pest or weed control at 500 g/ha ([8]; 500 g ai/ha, scale 0 to 100) | pest or weed control at 125 g/ha ([11]; 125 g ai/ha, scale 0 to 100) | pest or weed control at 250 g/ha ([11]; 250 g ai/ha, scale 0 to 100) | pest or weed control at 500 g/ha ([11]; 500 g ai/ha, scale 0 to 100)
0%: pest or weed control at 62 g/ha [1, 13] | pest or weed control at 250 g/ha ([1]; 250 g ai/ha, scale 0 to 100) | Corn plant response rating (crop injury, 0 = no effect, 100 = complete kill) at 62 g/ha ([2]; 62 g ai/ha, scale 0 to 100, 0 no effect, 100 complete control, read-out: Plant response rating, Corn) | Corn plant response rating (crop injury, 0 = no effect, 100 = complete kill) at 125 g/ha ([2]; 125 g ai/ha, scale 0 to 100, read-out: Plant response rating, Corn) | Corn plant response rating (crop injury, 0 = no effect, 100 = complete kill) at 250 g/ha ([2]; 250 g ai/ha, scale 0 to 100) | pest or weed control at 62 g/ha [3, 13] | pest or weed control at 62 g/ha [4, 13] | pest or weed control at 125 g/ha ([4]; 125 g ai/ha, scale 0 to 100) | pest or weed control at 62 g/ha [5, 13] | pest or weed control at 62 g/ha [6, 13] | pest or weed control at 125 g/ha ([6]; 125 g ai/ha, scale 0 to 100) | pest or weed control at 250 g/ha ([6]; 250 g ai/ha, scale 0 to 100) | pest or weed control at 500 g/ha ([6]; 500 g ai/ha, scale 0 to 100) | pest or weed control at 62 g/ha [7, 13] | pest or weed control at 62 g/ha [9, 13] | pest or weed control at 62 g/ha [12, 13] | pest or weed control at 125 g/ha ([12]; 125 g ai/ha, scale 0 to 100) | pest or weed control at 250 g/ha ([12]; 250 g ai/ha, scale 0 to 100) | pest or weed control at 500 g/ha ([12]; 500 g ai/ha, scale 0 to 100)
5%: pest or weed control at 125 g/ha ([3]; 125 g ai/ha, scale 0 to 100)
85%: pest or weed control at 250 g/ha ([3]; 250 g ai/ha, scale 0 to 100) | pest or weed control at 250 g/ha ([9]; 250 g ai/ha, scale 0 to 100)
